PubChem BioAssay AID330 (DTP/NCI, 2004)
Several values for one entry are separate records, joined by “and”; a condition that tells them apart may be missing. Identical values can stand only once. Inconclusive results and toxic doses are left out. Rule for the calls: active = survival T/C of 150% or more; inactive = T/C below 125% in these data. Square brackets hold non-standard residues; d marks the D form. Peptide text beside a SMILES is read from it. pGlu = O=C1CC[CH](C(=O)O)N1

Tested on: P388 leukemia ip, CD2F1 mice, survival T/C
Experiment: NCI In Vivo Anticancer Drug Screen. Data for tumor model P388 Leukemia (intraperitoneal) in CD2F1 (CDF1) mice
Settings: endpoint: median survival time, higher = longer survival
Outline: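 Mice carrying the transplanted tumor received test compound or vehicle. Survival was recorded in each group, and the value is the treated-group measurement divided by that of the vehicle-treated control group.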

[1] = dose: 50.0 mg/kg/injection, schedule: Q01DX009 (ip), vehicle: saline with Tween-80
[2] = dose: 100.0 mg/kg/injection, schedule: Q01DX009 (ip), vehicle: saline with Tween-80
[3] = dose: 200.0 mg/kg/injection, schedule: Q01DX009 (ip), vehicle: saline with Tween-80
[4] = dose: 12.5 mg/kg/injection, schedule: Q01DX005 (ip), vehicle: saline
[5] = dose: 50.0 mg/kg/injection, schedule: Q01DX005 (ip), vehicle: saline
[6] = dose: 400.0 mg/kg/injection, schedule: Q01DX009 (ip), vehicle: saline with Tween-80
[7] = dose: 60.0 mg/kg/injection, schedule: Q01DX005 (ip), vehicle: saline with Tween-80
[8] = dose: 120.0 mg/kg/injection, schedule: Q01DX005 (ip), vehicle: saline with Tween-80
[9] = dose: 240.0 mg/kg/injection, schedule: Q01DX005 (ip), vehicle: saline with Tween-80
[10] = dose: 50.0 mg/kg/injection, schedule: Q01DX005 (ip), vehicle: Klucel (hydroxypropylcellulose) (HPC)
[11] = dose: 100.0 mg/kg/injection, schedule: Q01DX005 (ip), vehicle: Klucel (hydroxypropylcellulose) (HPC)
[12] = dose: 200.0 mg/kg/injection, schedule: Q01DX005 (ip), vehicle: Klucel (hydroxypropylcellulose) (HPC)
[13] = dose: 12.5 mg/kg/injection, schedule: Q01DX005 (ip), vehicle: saline with Tween-80
[14] = dose: 25.0 mg/kg/injection, schedule: Q01DX005 (ip), vehicle: saline with Tween-80
[15] = dose: 50.0 mg/kg/injection, schedule: Q01DX005 (ip), vehicle: saline with Tween-80
[16] = dose: 100.0 mg/kg/injection, schedule: Q01DX005 (ip), vehicle: saline with Tween-80
[17] = dose: 200.0 mg/kg/injection, schedule: Q01DX005 (ip), vehicle: saline with Tween-80

Measured: T/C

COc1ccc(-c2cc[n+]([O-])c(C)c2C)c(OC)c1OC
inactive: [1] 94 % of control | [2] 96 % of control | [3] 92 % of control

NS(=O)(=O)c1ccc(N=NC2C(=O)N(c3ccc(Cl)cc3)C(=S)N(c3ccc(Cl)cc3)C2=O)cc1
inactive: [4] 100 % of control | dose: 25.0 mg/kg/injection, schedule: Q01DX005 (ip), vehicle: saline 100 % of control | [5] 108 % of control and 118 % of control

C(=N\n1cnnc1)/c1ccccc1/C=N/n1cnnc1
inactive: [2] 100 % of control | [3] 90 % of control | [6] 100 % of control

NNC(=O)c1cccc2ccccc12
inactive: dose: 3.12 mg/kg/injection, schedule: Q01DX005 (ip), vehicle: saline 101 % of control | dose: 6.25 mg/kg/injection, schedule: Q01DX005 (ip), vehicle: saline 104 % of control | [4] 98 % of control

COc1ccc2c(c1)c(C(=O)O)cc(=O)n2C
inactive: [2] 95 % of control | [3] 90 % of control | [6] 90 % of control

Cn1c2ccccc2c(=O)c2cc(NC(=O)CCCCC(=O)Nc3ccc4c(c3)c(=O)c3ccccc3n4C)ccc21
inactive: [7] 101 % of control | [8] 107 % of control | [9] 101 % of control

Cc1nn(-c2ccccc2)c(=O)n2c(-n3c(C)nn(-c4ccccc4)c3=O)nnc12
inactive: dose: 100.0 mg/kg/injection, schedule: Q01DX001 (ip), vehicle: saline with Tween-80 102 % of control | dose: 200.0 mg/kg/injection, schedule: Q01DX001 (ip), vehicle: saline with Tween-80 105 % of control | dose: 400.0 mg/kg/injection, schedule: Q01DX001 (ip), vehicle: saline with Tween-80 99 % of control

CN(C)CCN(N)CCN(C)C
inactive: [5] 94 % of control | dose: 100.0 mg/kg/injection, schedule: Q01DX005 (ip), vehicle: saline 105 % of control | dose: 200.0 mg/kg/injection, schedule: Q01DX005 (ip), vehicle: saline 100 % of control

C=C1CC2(CCCCC2C(C)(C)C)OC1=O (stereo unspecified)
inactive: dose: 100.0 mg/kg/injection, schedule: Q04DX002 (ip), vehicle: saline 100 % of control | dose: 200.0 mg/kg/injection, schedule: Q04DX002 (ip), vehicle: saline 99 % of control | dose: 400.0 mg/kg/injection, schedule: Q04DX002 (ip), vehicle: saline 99 % of control

Cc1nc2ccccc2c(=O)n1-c1ccc(-c2n[nH]c(=S)n2-c2ccccc2)cc1
inactive: [10] 105 % of control | [11] 110 % of control | [12] 102 % of control

C=C(Cl)C(=NC(C)C)Nc1ccccc1C
inactive: dose: 0.79 mg/kg/injection, schedule: Q01DX005 (ip), vehicle: Klucel (hydroxypropylcellulose) (HPC) 112 % of control | dose: 1.56 mg/kg/injection, schedule: Q01DX005 (ip), vehicle: Klucel (hydroxypropylcellulose) (HPC) 100 % of control and 107 % of control | dose: 3.12 mg/kg/injection, schedule: Q01DX005 (ip), vehicle: Klucel (hydroxypropylcellulose) (HPC) 107 % of control and 110 % of control and 115 % of control | dose: 6.25 mg/kg/injection, schedule: Q01DX005 (ip), vehicle: Klucel (hydroxypropylcellulose) (HPC) 118 % of control and 86 % of control | dose: 12.5 mg/kg/injection, schedule: Q01DX005 (ip), vehicle: Klucel (hydroxypropylcellulose) (HPC) 102 % of control and 114 % of control

CC(=O)c1c(CO[N+](=O)[O-])n([O-])c2ccccc2[n+]1=O
inactive: [7] 106 % of control | [8] 104 % of control

CC(=O)N[C@H]1CCC2[C@@H]3CCC4=CC(=O)NCC[C@]4(C)C3CC[C@@]21C (stereo partly specified)
inactive: [7] 95 % of control | [8] 92 % of control | [9] 94 % of control

C=CCSc1nc2ccc(NC(=O)/C=C/C(=O)O)cc2s1
inactive: dose: 50.0 mg/kg/injection, schedule: Q01DX009 (ip), vehicle: Klucel (hydroxypropylcellulose) (HPC) 95 % of control | dose: 100.0 mg/kg/injection, schedule: Q01DX009 (ip), vehicle: Klucel (hydroxypropylcellulose) (HPC) 93 % of control | dose: 200.0 mg/kg/injection, schedule: Q01DX009 (ip), vehicle: Klucel (hydroxypropylcellulose) (HPC) 102 % of control

O=C(Cc1ccccc1)N1CCc2cc3c(cc2/C1=C/c1cc2c(cc1Br)OCO2)OCO3
inactive: dose: 12.5 mg/kg/injection, schedule: Q01DX001 (ip), vehicle: saline + alcohol 100 % of control | dose: 25.0 mg/kg/injection, schedule: Q01DX001 (ip), vehicle: saline + alcohol 99 % of control | dose: 50.0 mg/kg/injection, schedule: Q01DX001 (ip), vehicle: saline + alcohol 100 % of control

S=C=Nc1ccc(-c2csc(Nc3ccnc4cc(Cl)ccc34)n2)cc1
inactive: [13] 101 % of control | [14] 98 % of control | [15] 99 % of control and 91 % of control | [16] 94 % of control

Cc1ccc2c(c1)P(=O)(c1ccccc1C(O)(C(F)(F)F)C(F)(F)F)c1cc(C)ccc1O2
inactive: dose: 100.0 mg/kg/injection, schedule: Q04DX002 (ip), vehicle: Klucel (hydroxypropylcellulose) (HPC) 101 % of control | dose: 200.0 mg/kg/injection, schedule: Q04DX002 (ip), vehicle: Klucel (hydroxypropylcellulose) (HPC) 94 % of control | dose: 400.0 mg/kg/injection, schedule: Q04DX002 (ip), vehicle: Klucel (hydroxypropylcellulose) (HPC) 90 % of control

BrC=C1c2ccccc2-c2ccccc21
inactive: dose: 100.0 mg/kg/injection, schedule: Q04DX003 (ip), vehicle: Klucel (hydroxypropylcellulose) (HPC) 100 % of control | dose: 200.0 mg/kg/injection, schedule: Q04DX003 (ip), vehicle: Klucel (hydroxypropylcellulose) (HPC) 91 % of control | dose: 400.0 mg/kg/injection, schedule: Q04DX003 (ip), vehicle: Klucel (hydroxypropylcellulose) (HPC) 102 % of control

CCOC(=O)CCC(NC(=O)C1CCC(=O)N1)C(=O)OCC (stereo unspecified) ([pGlu]-Glu(OEt)-OEt; configuration not given here)
inactive: [15] 96 % of control | [16] 91 % of control | [17] 98 % of control

Nc1nc(N)c2nc3c(nc2n1)C(=O)N(c1ccc(C(=O)O)cc1)C3
inactive: dose: 6.25 mg/kg/injection, schedule: Q01DX009 (ip), vehicle: saline with Tween-80 106 % of control | dose: 12.5 mg/kg/injection, schedule: Q01DX009 (ip), vehicle: saline with Tween-80 115 % of control | dose: 25.0 mg/kg/injection, schedule: Q01DX009 (ip), vehicle: saline with Tween-80 117 % of control | [1] 108 % of control

O=C(NN1C(=O)CS(=O)(=O)C1c1ccccc1F)c1ccncc1 (stereo unspecified)
inactive: dose: 6.25 mg/kg/injection, schedule: Q01DX005 (ip), vehicle: saline with Tween-80 102 % of control | [13] 98 % of control | [14] 99 % of control | [15] 97 % of control | [16] 90 % of control | [17] 97 % of control

Clc1cccc2c(SCCCCCSc3c4ccccc4nc4c(Cl)cccc34)c3ccccc3nc12
inactive: dose: 60.0 mg/kg/injection, schedule: Q01DX005 (ip), vehicle: Klucel (hydroxypropylcellulose) (HPC) 93 % of control | dose: 120.0 mg/kg/injection, schedule: Q01DX005 (ip), vehicle: Klucel (hydroxypropylcellulose) (HPC) 93 % of control | dose: 240.0 mg/kg/injection, schedule: Q01DX005 (ip), vehicle: Klucel (hydroxypropylcellulose) (HPC) 87 % of control

CCCn1cnc2c(sc3ccccc32)c1=O
inactive: [10] 101 % of control | [11] 93 % of control | [12] 93 % of control

O=C(N/N=C/c1ccc(/C=N/NC(=O)c2cccnc2)cc1)c1cccnc1
inactive: [1] 102 % of control | [2] 96 % of control | [3] 93 % of control

CCCCC(Nc1nncs1)Nc1nncs1
inactive: [7] 90 % of control | [8] 102 % of control | [9] 96 % of control
